Reference: ChEMBL document CHEMBL1151065, “Antiproliferative activity of haloosmocenium ions against human and murine cancer cell lines” (Bioorg Med Chem Lett, 1994)

Legend:
U-937 [1] = assay: Antiproliferative effect against human U937 histiocytic lymphoma cells; type: functional, cell-based
Daudi = assay: Antiproliferative effect against human Daudi Burkitt lymphoma cells; type: functional, cell-based
HL-60 = assay: Antiproliferative effect against human HL60 promyelocytic leukemia cells; type: functional, cell-based
LX-830 cell line [2] = assay: Antiproliferative effect against mouse LX830 lymphoma cells; type: functional, cell-based
CCRF S-180 = assay: Antiproliferative effect against mouse S180 sarcoma cells; type: functional, cell-based
COLO 320 = assay: Antiproliferative effect against human COLO 320 colon adenocarcinoma cells; type: functional, cell-based
NIH3T3 = assay: Antiproliferative effect against mouse NIH3T3 embryonic cells; type: functional, cell-based
U-937 [3] = assay: Rate of oxygen consumption of human U937 cells (10e7 cells) at 10 uM concentration was determined at 30degreeC, with control value 14.5; type: functional, cell-based
U-937 [4] = assay: Rate of oxygen consumption of human U937 cells (10e7 cells) at 200 uM concentration was determined at 30 degree C; type: functional, cell-based
[5] = Rate of oxidation by the compound at 0.5 mM versus 0.24 mM of NADH was determined
[6] = Rate of oxidation by the compound at 0.44 mM versus 0.49 mM of reduced cytochrome was determined at 30 degree C
LX-830 cell line [7] = assay: Antiproliferative effect against mouse LX830 lymphoma cells; inactive; type: functional, cell-based
[8] = Redox potential from cyclic voltammogram; type: physicochemical

IC50 (U-937 [1]) [µM]	IC50 (Daudi) [µM]	IC50 (HL-60) [µM]	IC50 (CCRF S-180) [µM]	IC50 (COLO 320) [µM]	Oxidation rate [5] [µM/min]	Oxidation rate [6] [nM/min]	E0 [8]	Substance	IC50 (LX-830 cell line [2]) [µM]	IC50 (NIH3T3) [µM]	Oxygen consumption rate (U-937 [3]) [nM/min]	Oxygen consumption rate (U-937 [4]) [nM/min]	IC50 (LX-830 cell line [7])
5.2	1.7	4.3	0.8	6.6				CISPLATIN [listing 1 of 2 here]	13.2	0.3			
								CISPLATIN [listing 2 of 2 here]			13.4		
					8	824		osmium(2+) ion bis(cyclopenta-1,3-diene) hexafluoro-phosphanuide iodide [listing 1 of 2 here]				10.5	
196	79	75	120	> 200			0.46	osmium(2+) ion bis(cyclopenta-1,3-diene) hexafluoro-phosphanuide iodide [listing 2 of 2 here]		87			Not Active
